The results in this text go back to ChEMBL document CHEMBL3045768, “Potential anti-inflammatory activity and ulcerogenicity study of some novel pyrimido[4,5:4,5]pyrimido[1,6-a]azepine derivatives” (Med Chem Res, 2012).

In data set [1] the test system is Rattus norvegicus. Briefly: Anti-inflammatory activity inRattus norvegicus albino (rat) assessed as inhibition of carrageenan-induced paw edema at 20 umol/kg, ip administered 1 hr before challenge measured after 2 hr. The class given is functional.
For data set [2], the system named is Rattus norvegicus. Kind of data set: Anti-inflammatory activity inRattus norvegicus albino (rat) assessed as inhibition of carrageenan-induced paw edema at 20 umol/kg, ip administered 1 hr before challenge measured after 3 hr relative to diclofenac-sodium. It counts as functional.
Data set [3] deals with Rattus norvegicus. Kind of data set: Anti-inflammatory activity inRattus norvegicus albino (rat) assessed as inhibition of carrageenan-induced paw edema at 20 umol/kg, ip administered 1 hr before challenge measured after 1 hr. It counts as functional.
For data set [4], the system named is Rattus norvegicus. Briefly: Anti-inflammatory activity inRattus norvegicus albino (rat) assessed as inhibition of carrageenan-induced paw edema at 20 umol/kg, ip administered 1 hr before challenge measured after 3 hr. The class given is functional.
In data set [5] the test system is Rattus norvegicus. Kind of data set: Toxicity inRattus norvegicus albino (rat) assessed as ulcerogenicity at 20 umol/kg, po qd for 3 days. The class given is organism-based. Particulars: in vivo, 72 h.
For data set [6], the system named is Rattus norvegicus. Kind of data set: Anti-inflammatory activity inRattus norvegicus albino (rat) assessed as inhibition of carrageenan-induced paw edema at 24 umol/kg, ip administered 1 hr before challenge measured after 3 hr. It counts as functional.
In data set [7] the test system is Rattus norvegicus. Kind of data set: Anti-inflammatory activity inRattus norvegicus albino (rat) assessed as inhibition of carrageenan-induced paw edema at 12 umol/kg, ip administered 1 hr before challenge measured after 3 hr. The class given is functional.
Data set [8] relates to Rattus norvegicus. Kind of data set: Anti-inflammatory activity inRattus norvegicus albino (rat) assessed as inhibition of carrageenan-induced paw edema at 18 umol/kg, ip administered 1 hr before challenge measured after 3 hr. The class given is functional.
For data set [9], the system named is Rattus norvegicus. Briefly: Anti-inflammatory activity in ip dosedRattus norvegicus albino (rat) assessed as inhibition of carrageenan-induced paw edema administered 1 hr before challenge measured after 3 hr. It counts as functional, organism-based.

Consider `O=C1N(c2ccccc2)c2nc(CN3CCCC3)[nH]c(=O)c2C2C(N3CCCC3)CCCCN12` (stereo not drawn), for which the inhibition in vivo at 20 µmol/kg was determined as 42.2% with Rattus norvegicus [1], 53.6% in the data set with Rattus norvegicus [2], 36.2% in the data set with Rattus norvegicus [3] and 48.7% in the data set with Rattus norvegicus [4].

Consider `O=C1N(c2ccccc2)c2nc(-c3ccccc3O)[nH]c(=O)c2C2C(N3CCCC3)CCCCN12` (stereo not drawn), for which the inhibition in vivo at 20 µmol/kg with Rattus norvegicus [1] amounted to 27.9%; in the data set with Rattus norvegicus [2] it was 42.5%; in the data set on Rattus norvegicus [3], 21.9%; with Rattus norvegicus [4], 37.2%.

In the case of `O=C1N(c2ccccc2)c2ncn(CN3CCOCC3)c(=O)c2C2C(N3CCCC3)CCCCN12` (stereo not drawn), the inhibition in vivo at 20 µmol/kg with Rattus norvegicus [1] was 18.5%; in the data set on Rattus norvegicus [2], 34.3%; in the data set on Rattus norvegicus [3], 13.1%; in the data set with Rattus norvegicus [4], 30.1%.

Regarding `Nc1ncnc2c1C1C(N3CCCC3)CCCCN1C(=O)N2c1ccccc1` (stereo not drawn), the inhibition in vivo at 20 µmol/kg was 22.8% in the data set with Rattus norvegicus [1], 38.5% in the data set on Rattus norvegicus [2], 17.6% in the data set on Rattus norvegicus [3] and 33.7% in the data set with Rattus norvegicus [4].

For `O=C([O-])Cc1ccccc1Nc1c(Cl)cccc1Cl.[Na+]` [DICLOFENAC SODIUM], in the data set with Rattus norvegicus [5], the UI is 9. In the data set with Rattus norvegicus [6], the inhibition in vivo at 24 µmol/kg was determined as 88.2%. Also, the results for the inhibition in vivo at 20 µmol/kg in the data set on Rattus norvegicus [1], in the data set with Rattus norvegicus [3] and in the data set on Rattus norvegicus [4] were 83.5%, 68.6% and 87.6%, respectively. Besides, the inhibition in vivo at 12 µmol/kg in the data set on Rattus norvegicus [7] turned out to be 59.5%. Also, the inhibition in vivo at 18 µmol/kg with Rattus norvegicus [8] came out at 79.3%. The IC50 in the data set on Rattus norvegicus [9] is 7.26 µmol/kg.

Regarding `O=C1N(c2ccccc2)c2nc(CN3CCOCC3)[nH]c(=O)c2C2C(N3CCCC3)CCCCN12` (stereo not drawn), the UI with Rattus norvegicus [5] turned out to be 4.3. Further, the inhibition in vivo at 20 µmol/kg turned out to be 57.5% with Rattus norvegicus [1], 71.2% in the data set on Rattus norvegicus [2], 51.9% in the data set on Rattus norvegicus [3] and 62.4% in the data set with Rattus norvegicus [4].

`O=C1N(c2ccccc2)c2nc[nH]c(=O)c2C2C(N3CCCC3)CCCCN12` (stereo not drawn): the inhibition in vivo at 20 µmol/kg in the data set with Rattus norvegicus [1] was 26.8%; in the data set with Rattus norvegicus [2] it was 37.8%; in the data set on Rattus norvegicus [3], 11%; in the data set with Rattus norvegicus [4] it was 33.1%.

Take `O=C1N(c2ccccc2)c2ncn(CN3CCCC3)c(=O)c2C2C(N3CCCC3)CCCCN12` (stereo not drawn): the inhibition in vivo at 20 µmol/kg is 22.3% in the data set with Rattus norvegicus [1], 37.2% with Rattus norvegicus [2], 16.2% in the data set with Rattus norvegicus [3] and 32.6% in the data set on Rattus norvegicus [4].

With `O=C1N(c2ccccc2)c2nc(CN3CCCCC3)[nH]c(=O)c2C2C(N3CCCC3)CCCCN12` (stereo not drawn), the inhibition in vivo at 20 µmol/kg amounted to 37.2% in the data set with Rattus norvegicus [1], 48.4% in the data set on Rattus norvegicus [2], 28% with Rattus norvegicus [3] and 42.4% in the data set with Rattus norvegicus [4].

`N#CC1=C(NC(=O)c2ccccc2O)N(c2ccccc2)C(=O)N2CCCCC(N3CCCC3)C12` (stereo not drawn): in the data set on Rattus norvegicus [5], the UI stood at 3.4. Also, the inhibition in vivo at 20 µmol/kg with Rattus norvegicus [1] is 53.8%; with Rattus norvegicus [2] it was 74.7%; in the data set on Rattus norvegicus [3], 44.7%; in the data set on Rattus norvegicus [4], 65.4%.

On to `O=C1N(c2ccccc2)c2ncnc(N3CCOCC3)c2C2C(N3CCCC3)CCCCN12` (stereo not drawn), for which the inhibition in vivo at 20 µmol/kg came to 21.2% in the data set on Rattus norvegicus [1], 38.6% in the data set on Rattus norvegicus [2], 17.7% in the data set on Rattus norvegicus [3] and 33.8% with Rattus norvegicus [4].

Take `O=C1N(c2ccccc2)c2nc(CCN3CCCCC3)[nH]c(=O)c2C2C(N3CCCC3)CCCCN12` (stereo not drawn): the inhibition in vivo at 20 µmol/kg in the data set with Rattus norvegicus [1] was determined as 35.7%; in the data set with Rattus norvegicus [2], 47.3%; in the data set with Rattus norvegicus [3], 26.8%; in the data set with Rattus norvegicus [4], 41.4%.

Regarding `O=C1N(c2ccccc2)c2nc(CCN3CCOCC3)[nH]c(=O)c2C2C(N3CCCC3)CCCCN12` (stereo not drawn), the UI in the data set with Rattus norvegicus [5] came out at 3.4. Besides, the inhibition in vivo at 20 µmol/kg in the data set with Rattus norvegicus [1] amounted to 52.2%; in the data set with Rattus norvegicus [2], 59.9%; with Rattus norvegicus [3], 38.8%; in the data set with Rattus norvegicus [4] it was 52.5%.

Regarding `O=C(Cc1ccccc1Nc1c(Cl)cccc1Cl)SCc1nc2c(c(=O)[nH]1)C1C(N3CCCC3)CCCCN1C(=O)N2c1ccccc1` (stereo not drawn), in the data set on Rattus norvegicus [5], the UI amounted to 2.6. The inhibition in vivo at 20 µmol/kg in the data set with Rattus norvegicus [1] worked out at 45.8%; in the data set with Rattus norvegicus [2], 61.3%; in the data set on Rattus norvegicus [3] it was 33.1%; in the data set with Rattus norvegicus [4] it was 53.1%.

Turning to `O=C1N(c2ccccc2)c2ncnc(N3CCCC3)c2C2C(N3CCCC3)CCCCN12` (stereo not drawn), the inhibition in vivo at 20 µmol/kg in the data set on Rattus norvegicus [1] worked out at 14.8%; in the data set on Rattus norvegicus [2], 31.1%; with Rattus norvegicus [3], 9.5%; in the data set on Rattus norvegicus [4], 27.3%.

As for `O=C1N(c2ccccc2)c2ncn(CN3CCCCC3)c(=O)c2C2C(N3CCCC3)CCCCN12` (stereo not drawn), the inhibition in vivo at 20 µmol/kg turned out to be 16.4% with Rattus norvegicus [1], 33.4% in the data set on Rattus norvegicus [2], 11.9% in the data set on Rattus norvegicus [3] and 29.3% with Rattus norvegicus [4].

`O=C(SCc1nc2c(c(=O)[nH]1)C1C(N3CCCC3)CCCCN1C(=O)N2c1ccccc1)c1ccccc1O` (stereo not drawn): the UI in the data set with Rattus norvegicus [5] came out at 3.4. Moreover, the inhibition in vivo at 20 µmol/kg in the data set on Rattus norvegicus [1] was found to be 36.9%; in the data set on Rattus norvegicus [2], 56.4%; in the data set on Rattus norvegicus [3], 29.8%; with Rattus norvegicus [4], 49.7%.

As to `O=C1N(c2ccccc2)c2nc(Cc3ccccc3Nc3c(Cl)cccc3Cl)[nH]c(=O)c2C2C(N3CCCC3)CCCCN12` (stereo not drawn), the inhibition in vivo at 20 µmol/kg in the data set on Rattus norvegicus [1] came out at 35.2%; in the data set with Rattus norvegicus [2], 51.7%; in the data set with Rattus norvegicus [3], 29.7%; in the data set on Rattus norvegicus [4], 45.3%.

Consider `N#CC1=C(NC(=O)Cc2ccccc2Nc2c(Cl)cccc2Cl)N(c2ccccc2)C(=O)N2CCCCC(N3CCCC3)C12` (stereo not drawn), for which the UI with Rattus norvegicus [5] stood at 4.1. The inhibition in vivo at 20 µmol/kg worked out at 48.5% with Rattus norvegicus [1], 76.7% in the data set on Rattus norvegicus [2], 31.9% in the data set with Rattus norvegicus [3] and 67.2% with Rattus norvegicus [4].

As to `O=C1N(c2ccccc2)c2nc(CCN3CCCC3)[nH]c(=O)c2C2C(N3CCCC3)CCCCN12` (stereo not drawn), the inhibition in vivo at 20 µmol/kg in the data set on Rattus norvegicus [1] was found to be 32.5%; with Rattus norvegicus [2], 50.6%; with Rattus norvegicus [3], 20.5%; with Rattus norvegicus [4] it was 44.3%.

`O=C1N(c2ccccc2)c2ncnc(N3CCCCC3)c2C2C(N3CCCC3)CCCCN12` (stereo not drawn): the inhibition in vivo at 20 µmol/kg in the data set on Rattus norvegicus [1] came out at 17.4%; in the data set with Rattus norvegicus [2], 31.9%; in the data set on Rattus norvegicus [3], 10.3%; with Rattus norvegicus [4] it was 27.9%.

As for `O=C(O)CSCc1nc2c(c(=O)[nH]1)C1C(N3CCCC3)CCCCN1C(=O)N2c1ccccc1` (stereo not drawn), the UI in the data set with Rattus norvegicus [5] is 2.7. Moreover, in the data set on Rattus norvegicus [6], the inhibition in vivo at 24 µmol/kg came to 89.6%. Also, the inhibition in vivo at 20 µmol/kg turned out to be 73.2% in the data set with Rattus norvegicus [1], 97.7% in the data set on Rattus norvegicus [2], 66.4% in the data set on Rattus norvegicus [3] and 85.6% in the data set with Rattus norvegicus [4]. Besides, in the data set with Rattus norvegicus [7], the inhibition in vivo at 12 µmol/kg stood at 51.2%. Besides, the inhibition in vivo at 18 µmol/kg in the data set on Rattus norvegicus [8] stood at 69.3%. Moreover, in the data set with Rattus norvegicus [9], the IC50 was determined as 11.73 µmol/kg.
